Test results reported in patent US8658646B2, “Pyrrolopyrazine kinase inhibitors” (Hoffmann-LaRoche Inc., priority 2011, dated 2014).

Molecular target: T1, recombinant human SYK360-635 (Homo sapiens, UniProt P43405)
T1 construct: made in house
Test: Determination of IC50 of Spleen Tyrosine Kinase (SYK) inhibition, 33P ATP filtration assay
Assay type: biochemical
Conditions: SYK aa 360-635 0.5 nM; ATP 20 μM, peptide 5 μM, 0.1% BSA; read-out: SYK_ENZYME_FILTRATION/v1, BSA
Description: All concentrations were final in the reaction mixture and all incubations were carried at room temperature. […] SYK Assay Information Determination of IC50 of Spleen Tyrosine Kinase (SYK) Inhibition:
SYK kinase assay is a standard kinase assay adapted to a 96 well plate format. This assay is performed in 96-well format for IC50 determination with 8 samples which represented 10 half log dilutions and a 40 μL reaction volume. The assay measures the incorporation of radiolabeled ^33P γATP into an N-terminally biotinylated peptide substrate, derived from naturally occurring phosphoacceptor consensus sequence (Biotin-11aa DY*E). […] Experimental Method:
DMSO and the mixture was incubated for 10 min at RT.
The kinase reaction was initiated by the addition of 10 μL 4× substrate cocktail containing the DYE peptide substrate [0 or 5 μM], ATP [20 μM] and ^33PγATP [2 μCi/r×n]. After incubation at 30° C. for 15 min, the reaction was terminated by the transfer of 25 μL pf the reaction sample to a 96 well 0.65 μm Millipore MADVNOB membrane/plate containing 200 μL 5 mM EDTA and 20% Streptavidine coated beads in PBS.
The unbound radionucleotides were washed under vacuum with 3×250 μL 2M NaCl; 2×250 μL 2M NaCl+1% phosphoric acid; 1×250 μL H2O. After the last wash membrane/plates were transferred to an adaptor plate, heat dried for 15 min at 60° C., and 50 μL scintillation cocktail was added to each well and 4 h later the amount of radioactivity was counted in a top counter.

SMILES	IC50 [nM]
CC(C)(CO)NC(=O)c1c[nH]c2ncc(-n3ncc4cc(Cl)ccc43)nc12 [Example I-318, 2-(5-Chloro-indazol-1-yl)-5H-pyrrolo[2,3-b]pyrazine-7-carboxylic acid (2-hydroxy-1,1-dimethyl-ethyl)-amide]	56.8
Cc1ccc2c(-c3cnc4[nH]cc(C(=O)NC(C)(C)CN(C)C)c4n3)nn(C)c2c1 [Example I-430, 2-(1,6-Dimethyl-1H-indazol-3-yl)-5H-pyrrolo[2,3-b]pyrazine-7-carboxylic acid (2-dimethylamino-1,1-dimethyl-ethyl)-amide]	1360
Cn1nc(-c2cnc3[nH]cc(C(=O)NC(C)(C)C)c3n2)c2ccc(C(F)(F)F)cc21 [Example I-420, 2-(1-Methyl-6-trifluoromethyl-1H-indazol-3-yl)-5H-pyrrolo[2,3-b]pyrazine-7 carboxylic acid tert-butylamide]	33.5
Cn1nc(-c2cnc3[nH]cc(C(=O)NC(C)(C)C)c3n2)c2ncccc21 [Example I-259, 2-(1-Methyl-1H-pyrazolo[4,3-b]pyridin-3-yl)-5H-pyrrolo[2,3-b]pyrazine-7-carboxylic acid tert-butylamide]	42.9
CC(C)(C)NC(=O)c1c[nH]c2ncc(-n3ncc4ccc(Cl)cc43)nc12 [Example I-329, 2-(6-Chloro-indazol-1-yl)-5H-pyrrolo[2,3-b]pyrazine-7-carboxylic acid tert-butylamide]	82.2
Cn1c2c(c(-c3cnc4[nH]cc(C(=O)NC(C)(C)C)c4n3)[n+]1[O-])CCCC2 [Example I-294, 2-(1-Methyl-2-oxy-4,5,6,7-tetrahydro-1H-indazol-3-yl)-5H-pyrrolo[2,3-b]pyrazine-7-carboxylic acid tert-butylamide]	4190
CC(C)(C)NC(=O)c1c[nH]c2ncc(-n3ncc4cc(Cl)ccc43)nc12 [Example I-324, 2-(5-Chloro-indazol-1-yl)-5H-pyrrolo[2,3-b]pyrazine-7-carboxylic acid tert-butylamide]	108
Cn1nc(-c2cnc3[nH]cc(C(=O)NC4(CO)CCC4)c3n2)c2ccc(F)cc21 [Example I-256, 2-(6-Fluoro-1-methyl-1H-indazol-3-yl)-5H-pyrrolo[2,3-b]pyrazine-7-carboxylic acid (1-hydroxymethyl-cyclobutyl)-amide]	23.5
Cn1nc(-c2cnc3[nH]cc(C(=O)N[C@H]4CC[C@@H](N)CC4)c3n2)c2cc(OC(F)F)ccc21 [Example I-402, 2-(5-Difluoromethoxy-1-methyl-1H-indazol-3-yl)-5H-pyrrolo[2,3-b]pyrazine-7-carboxylic acid (cis-4-amino-cyclohexyl)-amide]	101
CC(C)(C)NC(=O)c1c[nH]c2ncc(-c3nn(CC(=O)N4CCN(CC(F)(F)F)CC4)c4ccc(OC(F)F)cc34)nc12 [Example I-352, 2-(5-Difluoromethoxy-1-{2-oxo-2-[4-(2,2,2-trifluoro-ethyl)-piperazin-1-yl]-ethyl}-1H-indazol-3-yl)-5H-pyrrolo[2,3-b]pyrazine-7-carboxylic acid tert-butylamide]	15.9
CC(C)(C)NC(=O)c1c[nH]c2ncc(-n3ncc4cc(F)c(F)cc43)nc12 [Example I-327, 2-(5,6-Difluoro-indazol-1-yl)-5H-pyrrolo[2,3-b]pyrazine-7-carboxylic acid tert-butylamide]	221
Cn1nc(-c2cnc3[nH]cc(C(=O)NC(C)(C)C)c3n2)c2c1CCCCC2 [Example I-272, 2-(1-Methyl-1,4,5,6,7,8-hexahydro-cycloheptapyrazol-3-yl)-5H-pyrrolo[2,3-b]pyrazine-7-carboxylic acid tert-butylamide]	75.3
CC(C)(C)NC(=O)c1c[nH]c2ncc(-c3nn(CCC4OCCCO4)c4ccc(OC(F)F)cc34)nc12 [Example I-297, 2-[5-Difluoromethoxy-1-(2-[1,3]dioxan-2-yl-ethyl)-1H-indazol-3-yl]-5H-pyrrolo[2,3-b]pyrazine-7-carboxylic acid tert-butylamide]	28.1
Cn1nc(-c2cnc3[nH]cc(C(=O)N[C@@H]4CCC[C@@H](N)C4)c3n2)c2ccc(Cl)cc21 (relative stereo) [Example I-276, 2-(6-Chloro-1-methyl-1H-indazol-3-yl)-5H-pyrrolo[2,3-b]pyrazine-7-carboxylic acid (trans-3-amino-cyclohexyl)-amide]	16.4
CC(CC1CC1)NC(=O)c1c[nH]c2ncc(-c3nn(C)c4cc(F)ccc34)nc12 (stereo not drawn) [Example I-186, 2-(6-Fluoro-1-methyl-1H-indazol-3-yl)-5H-pyrrolo[2,3-b]pyrazine-7-carboxylic acid (2-cyclopropyl-1-methyl-ethyl)-amide]	129
Cn1nc(-c2cnc3[nH]cc(C(=O)NC4(C#N)CC4)c3n2)c2ccc(F)cc21 [Example I-387, 2-(6-Fluoro-1-methyl-1H-indazol-3-yl)-5H-pyrrolo[2,3-b]pyrazine-7-carboxylic acid (1-cyano-cyclopropyl)-amide]	31.7
C#CC1CN(C(=O)c2c[nH]c3ncc(-c4nn(C)c5cc(F)ccc45)nc23)C1 [Example I-360, (3-Ethynyl-azetidin-1-yl)-[2-(6-fluoro-1-methyl-1H-indazol-3-yl)-5H-pyrrolo[2,3-b]pyrazin-7-yl]-methanone]	1550
Cn1nc(-c2cnc3[nH]cc(C(=O)NC(C)(C)C)c3n2)c2cc(S(C)(=O)=O)ccc21 [Example I-461, N-tert-Butyl-2-(1-methyl-5-(methylsulfonyl)-1H-indazol-3-yl)-5H-pyrrolo[3,2-b]pyrazine-7-carboxamide]	144
CN1CCOC(Cn2nc(-c3cnc4[nH]cc(C(=O)NC(C)(C)C)c4n3)c3cc(OC(F)F)ccc32)C1 (stereo not drawn) [Example I-342, 2-[5-Difluoromethoxy-1-(4-methyl-morpholin-2-ylmethyl)-1H-indazol-3-yl]-5H-pyrrolo[2,3-b]pyrazine-7-carboxylic acid tert-butylamide]	17.2
CC(C)(C)NC(=O)c1c[nH]c2ncc(-n3nc(Cl)c4ccccc43)nc12 [Example I-335, 2-(3-Chloro-indazol-1-yl)-5H-pyrrolo[2,3-b]pyrazine-7-carboxylic acid tert-butylamide]	61.6

Now those with a lower IC50, led by results:

IC50 [nM]	SMILES
3.78	CC(C)(C)NC(=O)c1c[nH]c2ncc(-c3nn(CCCO)c4ccc(OC(F)F)cc34)nc12 [Example I-298, 2-[5-Difluoromethoxy-1-(3-hydroxy-propyl)-1H-indazol-3-yl]-5H-pyrrolo[2,3-b]pyrazine-7-carboxylic acid tert-butylamide]
7.95	COc1ccc2c(c1)c(-c1cnc3[nH]cc(C(=O)NC(C)(C)CO)c3n1)nn2C [Example I-288, 2-(5-Methoxy-1-methyl-1H-indazol-3-yl)-5H-pyrrolo[2,3-b]pyrazine-7-carboxylic acid (2-hydroxy-1,1-dimethyl-ethyl)-amide]
1.95	Cn1nc(-c2cnc3[nH]cc(C(=O)N[C@]4(C)CC[C@@H](N)CC4)c3n2)c2ccc(F)cc21 [Example I-416, 2-(6-Fluoro-1-methyl-1H-indazol-3-yl)-5H-pyrrolo[2,3-b]pyrazine-7-carboxylic acid (trans-4-amino-1-methyl-cyclohexyl)-amide]
4.7	Cn1nc(-c2cnc3[nH]cc(C(=O)NC(C)(C)C)c3n2)c2ccccc21 [Example I-410, 2-(1-Methyl-1H-indazol-3-yl)-5H-pyrrolo[2,3-b]pyrazine-7-carboxylic acid tert-butylamide]
8	Cc1cccc2c(-c3cnc4[nH]cc(C(=O)NC(C)(C)C)c4n3)n[nH]c12 [Example I-369, 2-(7-Methyl-1H-indazol-3-yl)-5H-pyrrolo[2,3-b]pyrazine-7-carboxylic acid tert-butylamide]
8.92	CC(C)(C)NC(=O)c1c[nH]c2ncc(-c3ncn4cc(Cl)ccc34)nc12 [Example I-356, 2-(6-Chloro-imidazo[1,5-a]pyridin-1-yl)-5H-pyrrolo[2,3-b]pyrazine-7-carboxylic acid tert-butylamide]
14.4	CNC(=O)Cn1nc(-c2cnc3[nH]cc(C(=O)NC(C)(C)C)c3n2)c2cc(OC(F)F)ccc21 [Example I-354, 2-(5-Difluoromethoxy-1-methylcarbamoylmethyl-1H-indazol-3-yl)-5H-pyrrolo[2,3-b]pyrazine-7-carboxylic acid tert-butylamide]
5.12	Cc1cccc2c(-c3cnc4[nH]cc(C(=O)NC(C)(C)CO)c4n3)n[nH]c12 [Example I-372, 2-(7-Methyl-1H-indazol-3-yl)-5H-pyrrolo[2,3-b]pyrazine-7-carboxylic acid (2-hydroxy-1,1-dimethyl-ethyl)-amide]
8.68	CCC(C)(C)NC(=O)c1c[nH]c2ncc(-c3nn(C)c4cc(Cl)ccc34)nc12 [Example I-391, 2-(6-Chloro-1-methyl-1H-indazol-3-yl)-5H-pyrrolo[2,3-b]pyrazine-7-carboxylic acid (1,1-dimethyl-propyl)-amide]
7.35	CC(C)(C)NC(=O)c1c[nH]c2ncc(-c3cccc4cc[nH]c34)nc12 [Example I-304, 2-(1H-Indol-7-yl)-5H-pyrrolo[2,3-b]pyrazine-7-carboxylic acid tert-butylamide]
2.27	Cn1nc(-c2cnc3[nH]cc(C(=O)NC4(C)CC4)c3n2)c2ccc(Cl)cc21 [Example I-395, 2-(6-Chloro-1-methyl-1H-indazol-3-yl)-5H-pyrrolo[2,3-b]pyrazine-7-carboxylic acid (1-methyl-cyclopropyl)-amide]
1.83	CC(C)(C)NC(=O)c1c[nH]c2ncc(-c3nn(C4CCNCC4)c4ccc(OC(F)F)cc34)nc12 [Example I-261, 2-(5-Difluoromethoxy-1-piperidin-4-yl-1H-indazol-3-yl)-5H-pyrrolo[2,3-b]pyrazine-7-carboxylic acid tert-butylamide]
15.1	CC(C)c1ccc2c(c1)c(-c1cnc3[nH]cc(C(=O)NC(C)(C)C)c3n1)nn2C [Example I-458, N-tert-Butyl-2-(5-isopropyl-1-methyl-1H-indazol-3-yl)-5H-pyrrolo[2,3-b]pyrazine-7-carboxamide]
